The values below are quoted from earlier work in patent US20250345348A1, “AMPK ACTIVATOR (CBDA) AND SGLT2 INHIBITOR FOR METABOLIC HEALTH” (SOCIETE DES PRODUITS NESTLE S.A., priority 2022, published 2025).

Like-named read-outs stand apart in the source and are kept apart here.

As to `O=C(CCc1ccc(O)cc1)c1c(O)cc(O)cc1O[C@@H]1O[C@H](CO)[C@@H](O)[C@H](O)[C@H]1O` [phlorizin, 1-(2,4-Dihydroxy-6-{[(2S,3R,4S,5S,6R)-3,4,5-trihydroxy-6-(hydroxymethyl)oxan-2-yl]oxy}phenyl)-3-(4-hydroxyphenyl)propan-1-one], the solubility entry by setting is: (in ethanol and hot water) “soluble”; (in ether and cold water) “poorly soluble”. For the setting “prolonged exposure to aqueous solutions”, the “stability in aqueous solutions” value is “hydrolyzes to phloretin and glucose”.
